Test results: patent US4053603A, “Benzylisoquinoline derivatives, and use as anti-arrhythmic drugs” (Astra Pharmaceutical Products, Inc., priority 1976, dated 1977)
Values joined by “and” are separate entries in the source; they are usually repeats but may differ in a detail not shown here. Equal entries are not always repeated. “Also recorded” adds a separate entry of the source.

System: chloroform-induced ventricular fibrillation
Test: protection against chloroform-induced ventricular fibrillation in mice
Assay type: in vivo, mouse (female Swiss albino, Ham/ICR)
Conditions: ED50^-1 in mmol/kg, standardized to compound 1 = 1
Procedure: (§1) Ventricular fibrillation was produced in female Swiss albino mice (Ham/ICR weighing 18-25g.) essentially according to the method described by Lawson in J. Pharm, Exp. Therap. 160, 22 (1968).
The mice were placed individually into a 2,000 ml. beaker with cotton and 50 ml. of chloroform. Immediately after cessation of respiration the mouse was removed from the beaker, the thorax opened and the heart examined for the presence or absence of ventricular fibrillation. Each heart was stimulated by touching with forceps, and the nature of the cardiac rhythm was noted and confirmed by electrocardiographic recordings. The heart was considered to be fibrillating if fine tremulous movements were present on the surface of the ventricle and persisted for at least five seconds after the mechanical stimulus. Ventricular fibrillation was considered absent in those animals in which coordinated ventricular activity was evident following such procedures.
(§2) For initial evaluation of antiarrhythmic activity and toxicity of test compounds, a dose of 100 mg/kg (calculated for the base form, 1% solution in 0.9% saline, adjusted to pH 6-7) was administered subcutaneously to a group of 10 non-fasted, randomly selected mice. […] After 20 minutes they were exposed to chloroform vapors and tested for protection against fibrillation.
For determination of ED50 and relative potency of the compounds, three log-spaced doses of drug were selected to give a low, intermediate, and high degree of protection against fibrillation. Each dose was administered to 10 mice.
The data obtained from the three point assay was computer-analyzed using Berkson's minimum logit chi square analysis. The program was designed to give ED50 values with 95 percent Fieller limits.

Row | Compound | relative Potency (molar basis)
1 | CCNCC(=O)Nc1cc(OC)c(OC)cc1Cc1nccc2cc(OC)c(OC)cc12 [Compound 2] | 1
2 | CCN(CC)CC(=O)Nc1c(Cc2nccc3ccccc23)ccc(OC)c1OC [Compound 3] | 1
3 | CCNCC(=O)Nc1c(Cc2nccc3ccccc23)ccc(OC)c1OC [Compound 4, 1-(2-[2-ethylamino-acetyl]amino-3,4-dimethoxybenzyl)isoquinoline] | 3
4 | COc1ccc(Cc2nccc3ccccc23)c(NC(=O)C(C)N)c1OC (stereo not drawn) [Compound 5] | 1
5 | CCN(CC)CC(=O)Nc1c(CC2c3ccccc3CCN2C)ccc(OC)c1OC (stereo not drawn) [Compound 7] | 1

Same assay, conditions: Mus musculus, sc, read-out: ED50 for protecting against fibrillation

Row | Compound | ED50
6 | CCN(CC)CC(=O)Nc1c(C)cccc1C [Lidocaine, 2-diethylamino-2',6'-acetoxylidide, reference compound] | 62 mg/kg

Same assay, conditions: Mus musculus, sc; mice; three log-spaced doses, 10 mice each; 95% Fieller limits in brackets; read-out: ED50 for protecting against fibrillation

Row | Compound | ED50
7 | CCN(CC)CC(=O)Nc1cc(OC)c(OC)cc1Cc1nccc2cc(OC)c(OC)cc12 [Compound 1] | 211 mg/kg
8 | CCNCC(=O)Nc1cc(OC)c(OC)cc1Cc1nccc2cc(OC)c(OC)cc12 [Compound 2] | 142 mg/kg
9 | CCN(CC)CC(=O)Nc1c(Cc2nccc3ccccc23)ccc(OC)c1OC [Compound 3] | 146 mg/kg
10 | CCNCC(=O)Nc1c(Cc2nccc3ccccc23)ccc(OC)c1OC [Compound 4, 1-(2-[2-ethylamino-acetyl]amino-3,4-dimethoxybenzyl)isoquinoline] | 54 mg/kg
11 | COc1ccc(Cc2nccc3ccccc23)c(NC(=O)C(C)N)c1OC (stereo not drawn) [Compound 5] | 257 mg/kg
12 | CCN(CC)CC(=O)Nc1c(CC2c3ccccc3CCN2C)ccc(OC)c1OC (stereo not drawn) [Compound 7] | 160 mg/kg

Same assay, conditions: mice, chloroform fibrillation

Row | Compound | antiarrhythmic activity (in words)
13 | CCN(CC)CC(=O)Nc1cc(OC)c(OC)cc1Cc1nccc2cc(OC)c(OC)cc12 [Compound 1] | increased the antiarrhythmic activity
14 | CCNCC(=O)Nc1cc(OC)c(OC)cc1Cc1nccc2cc(OC)c(OC)cc12 [Compound 2] | comparable protection against fibrillation at the same test dose
15 | CCN(CC)CC(=O)Nc1c(Cc2nccc3ccccc23)ccc(OC)c1OC [Compound 3] | greater antiarrhythmic activity
16 | CCNCC(=O)Nc1c(Cc2nccc3ccccc23)ccc(OC)c1OC [Compound 4, 1-(2-[2-ethylamino-acetyl]amino-3,4-dimethoxybenzyl)isoquinoline] | markedly higher antiarrhythmic potency than both its tertiary amine congener, compound 3, and lidocaine
17 | COc1ccc(Cc2nccc3ccccc23)c(NC(=O)C(C)N)c1OC (stereo not drawn) [Compound 5] | did not show any outstanding properties
18 | CCN(CC)CC(=O)Nc1c(CC2c3ccccc3CCN2C)ccc(OC)c1OC (stereo not drawn) [Compound 7] | essentially the same protection
19 | CCN(CC)CC(=O)Nc1c(C)cccc1C [Lidocaine, 2-diethylamino-2',6'-acetoxylidide, reference compound] | strong antiarrhythmic activity
20 | COc1ccc(Cc2nccc3cc(OC)c(OC)cc23)cc1OC [Papaverine, reference compound] | only little antiarrhythmic activity

System: mice
Test: central nervous system toxicity observation in mice (ataxia, convulsions, loss of righting reflex, death)
Assay type: in vivo, mouse (female Swiss albino, Ham/ICR)
Conditions: 138 mg/kg s.c., 10 mice

Row | Compound | Toxicity: Ataxia (number of mice) | Toxicity: Con. (Convulsions) (number of mice) | Toxicity: Death (number of mice) | Toxicity: LRR (Loss of righting reflex) (number of mice)
21 | CCN(CC)CC(=O)Nc1c(CC2c3ccccc3CCN2C)ccc(OC)c1OC (stereo not drawn) [Compound 7] | 0 | 0 | 0 | 0

System: central nervous system
Test: not given
Conditions: metabolite of lidocaine, high doses of lidocaine; cited from earlier work

Row | Compound | contribution to convulsive symptoms of CNS toxicity (in words)
22 | CCNCC(=O)Nc1c(C)cccc1C [monoethylglycinexylidide] | appears to be the metabolite contributing to the production of the convulsive symptoms of central nervous system toxicity with high doses of lidocaine

System: mice
Test: central nervous system toxicity observation in mice (ataxia, convulsions, loss of righting reflex, death)
Assay type: in vivo, mouse (female Swiss albino, Ham/ICR)
Conditions: 100 mg/kg s.c., 10 mice
Procedure: as §1, §2

Row | Compound | Toxicity: Death (number of mice)
23 | CCN(CC)CC(=O)Nc1cc(OC)c(OC)cc1Cc1nccc2cc(OC)c(OC)cc12 [Compound 1] | 0
24 | CCNCC(=O)Nc1cc(OC)c(OC)cc1Cc1nccc2cc(OC)c(OC)cc12 [Compound 2] | 0
25 | CCN(CC)CC(=O)Nc1c(Cc2nccc3ccccc23)ccc(OC)c1OC [Compound 3] | 0
26 | CCNCC(=O)Nc1c(Cc2nccc3ccccc23)ccc(OC)c1OC [Compound 4, 1-(2-[2-ethylamino-acetyl]amino-3,4-dimethoxybenzyl)isoquinoline] | 0
27 | COc1ccc(Cc2nccc3ccccc23)c(NC(=O)C(C)N)c1OC (stereo not drawn) [Compound 5] | 0
28 | CCN(CC)CC(=O)Nc1cc(OC)c(OC)cc1Cc1nccc2ccccc12 [Compound 6] | 0
29 | CCN(CC)CC(=O)Nc1c(C)cccc1C [Lidocaine, 2-diethylamino-2',6'-acetoxylidide, reference compound] | 0
30 | COc1ccc(Cc2nccc3cc(OC)c(OC)cc23)cc1OC [Papaverine, reference compound] | 0

Same assay, conditions: 100 mg/kg s.c., 10 mice, 20 min observation

Row | Compound | Toxicity: Ataxia (number of mice) | Toxicity: Con. (Convulsions) (number of mice) | Toxicity: LRR (Loss of righting reflex) (number of mice)
31 | CCN(CC)CC(=O)Nc1cc(OC)c(OC)cc1Cc1nccc2cc(OC)c(OC)cc12 [Compound 1] | 0 | 0 | 0
32 | CCNCC(=O)Nc1cc(OC)c(OC)cc1Cc1nccc2cc(OC)c(OC)cc12 [Compound 2] | 9 | 0 | 0
33 | CCN(CC)CC(=O)Nc1c(Cc2nccc3ccccc23)ccc(OC)c1OC [Compound 3] | 0 | 0 | 0
34 | CCNCC(=O)Nc1c(Cc2nccc3ccccc23)ccc(OC)c1OC [Compound 4, 1-(2-[2-ethylamino-acetyl]amino-3,4-dimethoxybenzyl)isoquinoline] | 0 | 0 | 0
35 | COc1ccc(Cc2nccc3ccccc23)c(NC(=O)C(C)N)c1OC (stereo not drawn) [Compound 5] | 0 | 0 | 0
36 | CCN(CC)CC(=O)Nc1cc(OC)c(OC)cc1Cc1nccc2ccccc12 [Compound 6] | 7 | 0 | 0
37 | COc1ccc(Cc2nccc3cc(OC)c(OC)cc23)cc1OC [Papaverine, reference compound] | 2 | 0 | 0

Same assay, conditions: mice

Row | Compound | toxicity (in words)
38 | CCN(CC)CC(=O)Nc1cc(OC)c(OC)cc1Cc1nccc2cc(OC)c(OC)cc12 [Compound 1] | decreased the central nervous system toxicity
39 | CCNCC(=O)Nc1cc(OC)c(OC)cc1Cc1nccc2cc(OC)c(OC)cc12 [Compound 2] | toxicity symptoms; also recorded: higher toxicity
40 | CCN(CC)CC(=O)Nc1c(Cc2nccc3ccccc23)ccc(OC)c1OC [Compound 3] | lower toxicity
41 | CCN(CC)CC(=O)Nc1c(CC2c3ccccc3CCN2C)ccc(OC)c1OC (stereo not drawn) [Compound 7] | comparable toxicity characteristics, as compound 1
42 | COc1ccc(Cc2nccc3cc(OC)c(OC)cc23)cc1OC [Papaverine, reference compound] | some evidence of toxicity

System: heart
Test: not given
Conditions: background, clinical use; cited from earlier work

Row | Compound | cardiac effect / arrhythmia at clinical doses (in words)
43 | COc1ccc(Cc2nccc3cc(OC)c(OC)cc23)cc1OC [Papaverine, reference compound] | doses required were also found to cause dangerous arrhythmias by depression of A-V and intraventricular conduction

Same assay, conditions: intravenous and intramuscular; cited from earlier work

Row | Compound | antiarrhythmic effectiveness (in words)
44 | CCN(CC)CC(=O)Nc1c(C)cccc1C [Lidocaine, 2-diethylamino-2',6'-acetoxylidide, reference compound] | proved effective as an antiarrhythmic drug administered both intravenously and intramuscularly

System: not listed separately
Test: coronary ligated dogs, antiarrhythmic effect and toxicity, intravenous infusion (Harris procedure)
Assay type: in vivo, dog
Conditions: dog, in vivo, iv, Dose Producing Toxicity (convulsion)
Procedure: (§3) Further confirmation of the superiority of the secondary amine compound was provided by comparison of the secondary and tertiary amines in tests on coronary ligated dogs. The tests were conducted in accordance with the procedure of Harris given in Circulation, 1, 1318, 1950. The drugs were administered by the intravenous route by infusion at a dosage of 0.5 mg./kg./minute, in a volume of 0.97 ml./minute and a concentration of 5.2-4.3 mg/ml. The animals were weighed and the solutions prepared on the day of the experiment.

Row | Compound | dose producing toxicity
45 | CCN(CC)CC(=O)Nc1c(Cc2nccc3ccccc23)ccc(OC)c1OC [Compound 3] | 15.8 mg/kg

Same assay, conditions: dog, in vivo, iv, Dose Producing Toxicity (profound head tremors)

Row | Compound | dose producing toxicity
46 | CCN(CC)CC(=O)Nc1c(Cc2nccc3ccccc23)ccc(OC)c1OC [Compound 3] | 12.5 mg/kg

System: ventricular arrhythmias in coronary ligated dogs
Test: as above
Assay type: in vivo, dog
Conditions: coronary ligated dogs, i.v.
Procedure: as §3

Row | Compound | abolishing severe arrhythmias (in words) | central nervous system and cardiovascular toxicity at effective doses (in words)
47 | CCN(CC)CC(=O)Nc1c(Cc2nccc3ccccc23)ccc(OC)c1OC [Compound 3] | effective in abolishing severe arrhythmias | –
48 | CCNCC(=O)Nc1c(Cc2nccc3ccccc23)ccc(OC)c1OC [Compound 4, 1-(2-[2-ethylamino-acetyl]amino-3,4-dimethoxybenzyl)isoquinoline] | effective in abolishing severe arrhythmias | free from indications of central nervous system and cardiovascular toxicity

Same assay, conditions: dog, i.v. infusion

Row | Compound | dose producing toxicity
49 | CCNCC(=O)Nc1c(Cc2nccc3ccccc23)ccc(OC)c1OC [Compound 4, 1-(2-[2-ethylamino-acetyl]amino-3,4-dimethoxybenzyl)isoquinoline] | (c)

Same assay, conditions: dog, i.v. infusion 0.5 mg/kg/minute

Row | Compound | Mean Arterial Blood Pressure, values after administration | Ventricular Rate, values after administration
50 | CCN(CC)CC(=O)Nc1c(Cc2nccc3ccccc23)ccc(OC)c1OC [Compound 3] | 100 and 90 | 153 and 135
51 | CCNCC(=O)Nc1c(Cc2nccc3ccccc23)ccc(OC)c1OC [Compound 4, 1-(2-[2-ethylamino-acetyl]amino-3,4-dimethoxybenzyl)isoquinoline] | 125 and 85 | 147 and 123

Same assay, conditions: dog, in vivo, iv

Row | Compound | Dose Producing Toxicity (profound head tremors)
52 | CCN(CC)CC(=O)Nc1c(Cc2nccc3ccccc23)ccc(OC)c1OC [Compound 3] | 6.25 mg/kg
